From patent publication EP0414894A1 (priority 1989, dated 1990) come the findings set out here.

Values joined by “and” are separate entries in the source; they are usually repeats but may differ in a detail not shown here. Equal values may be shown once. Read-outs that look alike come from different tables or passages of the source.

Data set [1] has as its system domestic flies. The data set can be described thus: insecticidal activity, laboratory test in gauze boxes. It is filed as in vivo. As to conditions: for Death of flies, % Tests in laboratory: 2% solution in 5% aqueous glucose, observed in 48-72 hours. How it is done: The compound obtained was used for preparing an insecticidal composition which was a 2% solution of the compound in a 5% aqueous solution of glucose. The test for activity of the insecticidal composition of the invention was conducted on domestic flies. Into gause 10x10 cm boxes /6 boxes/ 6-7-day flies were placed in the number of 50 individuals per box, which were of both sexes. The Petri dishes containing the insecticidal composition of the invention were put into 5 boxes. The observations for fly death were carried out in 48-72 hours. The Petri dish containing a 5% aqueous glucose solution were placed into a control box.

Data set [2] concerns Candida Tropi-calis. The data set can be described thus: fungicidal activity, laboratory test on Sabouraud medium. Conditions: 0.01% solution in water. It counts as cell-based, Candida tropicalis. How it is done: (§1) A fungicidal composition based on this compound was prepared, which was a 0.01% solution of the compound in water. […] For testing it the Petri dishes containing Sabourand growth medium were inoculated by using suspension of microorganisms containing 5x10⁷ cells of fungi in 1 ml.
(§2) The restricted surface areas (7 mm in diameter) were coated with the composition by means of a small metal spatula 4x4 mm in size. In a day of incubating it at 37°C in the thermostat the composition inhibited the growth of yeast-like fungi. An antifungal activity of the composition was specified according to the method of 10-fold serial dilution using Sabourand's liquid medium in 2 ml of which 2x10⁵ cells were introduced.

In data set [3] the test system is Candida albicans. Described as above. It counts as cell-based. As to conditions: 0.01% solution in water. How it is done: as §1, §2
In data set [4] the test system is Candida Tropi-calis. The data set can be described thus: fungicidal activity, large-scale test on surfaces of articles. It counts as cell-based, Candida tropicalis. Conditions: 0.01% solution in water. As to the method: (§3) The large-scale tests were carried out by using Candida albicans and Candida tropicalis strains, with their 2-day agar culture being diluted with an isotonic sodium chloride solution up to the concentration of 5x10⁷ cells in 1 ml. The culture suspension was laid on the surface (7 mm in diameter) of articles made of ceramics, metal, wood and rubber as well as a cotton, flannel and woollen cloth which were presterilized.
(§4) In a day after incubation from the treated areas washings were taken with a cotton-gauze tampon which was moistened with Sabouraud's liquid medium, then they were immersed into the tubes containing a similar medium, and placed into thermostat at 37°C for 2 days. Thereafter, the inoculum was transfered onto a solified Sabouraud agar, and the values of growth were recorded according to a conventional procedure. The test data of the composition according to the invention over a known composition (zineb) and the control are given in Table 3.

Data set [5] deals with domestic flies. The data set can be described thus: insecticidal activity, full-scale (large-scale) test in premises. It is filed as in vivo. Conditions: 2% solution, 2-3 dishes per 20 m²; 72 hours. How it is done: The full-scale tests for activity of the insecticidal composition of the invention to domestic flies in habitable and industrial premises were carried out as follows. The Petri dishes containing a 2% solution of the insecticidal composition of the invention were located according 2-3-dishes per 20 m². The composition activity was evaluated by a direct estimation of killed insects in 72 hours or by using an adhesive tape to count the number of flies on its surface prior to and after conducting the test.

In data set [6] the test system is Candida albicans. The data set can be described thus: fungicidal activity, large-scale test on surfaces of articles. Conditions: 0.01% solution in water. It is filed as cell-based. As to the method:
as §3, §4

The test system of data set [7] is Meningopneumonia virus. More on the design: species or system meningopneumonia pathogene/MP strain/.
Data set [8] concerns Influenza A viruses. The data set can be described thus: virulicidal activity, virus titer in allantoic fluid by hemagglutination-inhibition.
Data set [9] has as its system Hepatitis B virus. The data set can be described thus: virulicidal activity, HBsAg titer in blood serum. The source says:
table ratio instead of the test composition.

The subject of data set [10] is pig ascarid eggs. The data set can be described thus: microbe, parasite or virus in culture.
The subject of data set [11] is Escherichia coli. The data set can be described thus: microbe, parasite or virus in culture. It is filed as cell-based. As to conditions: Escherichia coli; for killing at 0.5 %: read-out: Death of micro-organisms, % Escherichia coli.
Data set [12] concerns Staphylococcus aureus. The data set can be described thus: microbe, parasite or virus in culture. It is filed as cell-based. As to conditions: Staphylococcus aureus; for killing at 0.5 %: read-out: Death of micro-organisms, % Staphylo-cocus aureus.
Data set [13] deals with poliomyelitis virus.
The mark [14] stands for this setting: 24 h, read-out: Death of ascaridal eggs, % after 24 hours.
Where [15] appears, read: 48 h, read-out: Death of ascaridal eggs, % after 48 hours.

For `COP(=NC(CO)C(O)c1ccc([N+](=O)[O-])cc1)(OC)OC` (centres unmarked) [Example 1, trimethoxyphosphazo-1-para-nitrophenyl-1,3-propandiol], the “Death of flies, % Tests in laboratory” value in data set [1] amounted to 89.1%. The “Growth inhibition of fungal colonies, % Candida Tropi-calis Laboratory tests” value in data set [2] is reported as 100.0%. In data set [3], the “Growth inhibition of fungal colonies, % Candida albicans Laboratory tests” value is recorded as 100.0%. Also, the “Growth inhibition of fungal colonies, % Candida Tropi-calis Large-scale tests” value in data set [4] came out at 100.0%. In addition, the “Death of flies, % Tests in large-scale” value in [5] was determined as 87.0%. The “Growth inhibition of fungal colonies, % Candida albicans Large-scale tests” value in data set [6] is given as 100.0%.
`CCOP(=NC(CO)C(O)c1ccc([N+](=O)[O-])cc1)(OCC)OCC` (centres unmarked) [Example 2, triethoxyphosphazo-1-para-nitrophenyl-1,3-propandiol]: the “Death of flies, % Tests in laboratory” value in [1] was determined as 84.7%. In [2], the “Growth inhibition of fungal colonies, % Candida Tropi-calis Laboratory tests” value is 100.0%. Moreover, the “Growth inhibition of fungal colonies, % Candida albicans Laboratory tests” value in [3] is 100.0%. Further, the “Growth inhibition of fungal colonies, % Candida Tropi-calis Large-scale tests” value in data set [4] was 100.0%. Further, in data set [5], the “Death of flies, % Tests in large-scale” value stood at 83.0%. Besides, in data set [6], the “Growth inhibition of fungal colonies, % Candida albicans Large-scale tests” value is on record as 100.0%.
As to `CCCOP(=NC(CCl)C(O)c1ccc([N+](=O)[O-])cc1)(OCCC)OCCC` (centres unmarked) [Example 5, tri-n-propoxyphosphazo-1-para-nitrophenyl-1-chloro-3-propanol], the “Virulicidal activity (%) under exposure 60 min” value was 50.0% and 75.0% in data set [7]; 50.0% in data set [8] (concentration 1.0 % by mass); 75.0% in data set [8] (concentration 2.0 % by mass); 50.0% in data set [9] (concentration 1.0 % by mass); 75,0% in data set [9] (concentration 2.0 % by mass). The “Death of flies, % Tests in laboratory” value in data set [1] is recorded as 94.5%. Further, the “Virulicidal activity (%) under exposure 30 min” value in data set [8] (concentration 1.0 % by mass) is given as 12.5%; in [8] (concentration 2.0 % by mass), 50.0%; in data set [9] (concentration 1.0 % by mass), 12.5%; in data set [9] (concentration 2.0 % by mass), 25,0%. In [5], the “Death of flies, % Tests in large-scale” value turned out to be 93.0%. The killing at 2 % in [10] (setting [14]) and in data set [10] (setting [15]) was 100% each time.
As to `COP(=NC(CCl)C(Cl)c1ccc([N+](=O)[O-])cc1)(OC)OC` (centres unmarked) [Example 9, trimethoxyphosphazo-1-para-nitrophenyl-1,3-dichloropropane], the killing at 0.5 % in [11] and in data set [12] was 100% each time. Besides, the “Death of flies, % Tests in laboratory” value in [1] is given as 85.2%. Moreover, the “Growth inhibition of fungal colonies, % Candida Tropi-calis Laboratory tests” value in [2] is on record as 100.0%. Besides, in [3], the “Growth inhibition of fungal colonies, % Candida albicans Laboratory tests” value is recorded as 100.0%. The “Growth inhibition of fungal colonies, % Candida Tropi-calis Large-scale tests” value in data set [4] is 100.0%. In data set [5], the “Death of flies, % Tests in large-scale” value was found to be 83.0%. In addition, the “Growth inhibition of fungal colonies, % Candida albicans Large-scale tests” value in data set [6] is 100.0%.
Turning to `CCOP(=NC(CCl)C(Cl)c1ccc([N+](=O)[O-])cc1)(OCC)OCC` (centres unmarked) [Example 10, triethoxyphosphazo-1-para-nitrophenyl-1,3-dichloropropane], the killing at 0.5 % in data set [11] came out at 100%; in data set [12] it was 99.8%. In data set [1], the “Death of flies, % Tests in laboratory” value was 89.9%. The “Growth inhibition of fungal colonies, % Candida Tropi-calis Laboratory tests” value in data set [2] was 100.0%. The “Growth inhibition of fungal colonies, % Candida albicans Laboratory tests” value in [3] was found to be 100.0%. For the same compound, the “Growth inhibition of fungal colonies, % Candida Tropi-calis Large-scale tests” value in data set [4] is listed as 100.0%. Moreover, the “Death of flies, % Tests in large-scale” value in [5] worked out at 88.0%. Also, the “Growth inhibition of fungal colonies, % Candida albicans Large-scale tests” value in data set [6] was found to be 100.0%.
As for `COP(=NC(CCl)C(O)c1ccc([N+](=O)[O-])cc1)(OC)OC` (centres unmarked) [Example 15], in data set [2], the “Growth inhibition of fungal colonies, % Candida Tropi-calis Laboratory tests” value worked out at 100.0%. In [3], the “Growth inhibition of fungal colonies, % Candida albicans Laboratory tests” value amounted to 100.0%. For the same compound, in data set [4], the “Growth inhibition of fungal colonies, % Candida Tropi-calis Large-scale tests” value is on record as 100.0%. Moreover, the “Growth inhibition of fungal colonies, % Candida albicans Large-scale tests” value in data set [6] is listed as 100.0%.
In the case of `CCOP(=NC(CCl)C(O)c1ccc([N+](=O)[O-])cc1)(OCC)OCC` (centres unmarked) [Example 16, triethoxy-phosphazo-1-para-nitrophenyl-1-chloro-3-propanol], the “Virulicidal activity (%) under exposure 30 min” value in [7] was 25.0% and 50.0%; in [8] (concentration 1.0 % by mass), 50.0%; in data set [8] (concentration 2.0 % by mass), 98.4%; in [9] (concentration 1.0 % by mass) it was 50.0%; in data set [9] (concentration 2.0 % by mass), 100,0%. The “Virulicidal activity (%) under exposure 60 min” value was 50.0% and 99.0% in data set [7]; 75.0% in data set [8] (concentration 1.0 % by mass); 100.0% in data set [8] (concentration 2.0 % by mass); 75.0% in data set [9] (concentration 1.0 % by mass); 100,0% in data set [9] (concentration 2.0 % by mass). Also, in data set [2], the “Growth inhibition of fungal colonies, % Candida Tropi-calis Laboratory tests” value came to 100.0%. Besides, in data set [3], the “Growth inhibition of fungal colonies, % Candida albicans Laboratory tests” value is 100.0%. Besides, the “Growth inhibition of fungal colonies, % Candida Tropi-calis Large-scale tests” value in [4] is 100.0%. Also, the “Growth inhibition of fungal colonies, % Candida albicans Large-scale tests” value in [6] was 100.0%.
In the case of `O=C(N[C@H](COP(=N[C@@H](CO)[C@@H](O)c1ccc([N+](=O)[O-])cc1)(OC[C@@H](NC(=O)C(Cl)Cl)[C@H](O)c1ccc([N+](=O)[O-])cc1)OC[C@@H](NC(=O)C(Cl)Cl)[C@H](O)c1ccc([N+](=O)[O-])cc1)[C@H](O)c1ccc([N+](=O)[O-])cc1)C(Cl)Cl` [Example 27], in [1] (concentration 2.0 % by mass, after 48 hours), the “Death of flies, % after 48 hours” value was 34.0%. For the same compound, the “Death of flies, % after 72 hours” value in [1] (concentration 2.0 % by mass, after 72 hours) turned out to be 62.0%. Also, the “Virulicidal activity (%) under exposure 30 min” value in [8] (concentration 1.0 % by mass) and in data set [8] (concentration 2.0 % by mass) was 100.0% in each case. In addition, the killing at 2 % in data set [10] (setting [14]) and in data set [10] (setting [15]) was 100% in each case.
With `O=[N+]([O-])c1ccc(C(O)C(CO)N=P(Nc2ccccc2)(Nc2ccccc2)Nc2ccccc2)cc1` (centres unmarked) [Example 29, trianilidophosphazo-1-para-nitrophenyl-1,3-propanediol], the killing at 2 % in data set [10] (setting [14]) was 97.6%; in data set [10] (setting [15]), 100%.
Regarding `CNC(=S)S` [carbathione, dihydrate, reference compound], the killing at 2 % in data set [10] (setting [14]) was found to be 60%; in [10] (setting [15]), 80%.
For `O=S(=O)(NCl)c1ccccc1` [sodium N-chlorobenzenesulfamide, reference compound], the killing at 0.2 % was found to be 100% in [11] (read-out: Death of micro-organisms, % E.coli) and 90% in data set [12] (read-out: Death of micro-organisms, % S.aureus). Moreover, the killing at 0.5 % in [11] and in data set [12] was 100% throughout. Moreover, the “Virulicidal activity (%) to poliomyelitis virus under exposure of 30 min” value in data set [13] (concentration 1.0 % by mass) is listed as 9.0%; in data set [13] (concentration 2.0 % by mass), 12.5%. Also, the “Virulicidal activity (%) to poliomyelitis virus under exposure of 60 min” value in data set [13] (concentration 1.0 % by mass) turned out to be 25.0%; in data set [13] (concentration 2.0 % by mass) it was 50.0%. In addition, the “Virulicidal activity (%) under exposure 60 min” value in data set [7] is 25.0% and 50.0%; in [8] (concentration 1.0 % by mass) it was 25.0%; in [8] (concentration 2.0 % by mass) it was 50.0%; in data set [9] (concentration 1.0 % by mass), 25.0%; in data set [9] (concentration 2.0 % by mass) it was 50.0%. Moreover, the “Virulicidal activity (%) under exposure 30 min” value in data set [8] (concentration 1.0 % by mass) is 12.5% and 22.0%; in data set [8] (concentration 2.0 % by mass) it was 25.0% and 25.1%; in data set [9] (concentration 1.0 % by mass) it was 9.0%; in [9] (concentration 2.0 % by mass), 12.5%.
